Target: T1, Full-length, GST-tagged, human CaMKIIδ (Homo sapiens, UniProt Q13557)
T1 construct: Full-Length, Glutathione-S-Transferase(GST)-Tagged, Human CaMKIIδ was purchased from Carna Biosciences; purchased Carna Biosciences 02-111
Experiment: CaMKIIδ binding assay (TR-FRET with BODIPY-labeled probe ligand)
Outline: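 Compounds were tested as 4-fold, eight-point series for 1 hr at room temperature, and IC50 was obtained by logistic fitting against a 3 μM parent-compound control. Signal came from displacement of a 300 nM BODIPY ligand from 0.5 nM GST-CaMKIIδ, detected via Tb-anti-GST in calmodulin/Ca2+ (pH 7.6).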

[1] = CaMKIIδ binding assay, results of Table 2
[2] = Table 2, activity class for CaMKIIδ
[3] = Table 2, CaMKIIδ binding assay, activity given as class A/B/C

T1 sequence (Q13557 1-478 isoform Q13557-12): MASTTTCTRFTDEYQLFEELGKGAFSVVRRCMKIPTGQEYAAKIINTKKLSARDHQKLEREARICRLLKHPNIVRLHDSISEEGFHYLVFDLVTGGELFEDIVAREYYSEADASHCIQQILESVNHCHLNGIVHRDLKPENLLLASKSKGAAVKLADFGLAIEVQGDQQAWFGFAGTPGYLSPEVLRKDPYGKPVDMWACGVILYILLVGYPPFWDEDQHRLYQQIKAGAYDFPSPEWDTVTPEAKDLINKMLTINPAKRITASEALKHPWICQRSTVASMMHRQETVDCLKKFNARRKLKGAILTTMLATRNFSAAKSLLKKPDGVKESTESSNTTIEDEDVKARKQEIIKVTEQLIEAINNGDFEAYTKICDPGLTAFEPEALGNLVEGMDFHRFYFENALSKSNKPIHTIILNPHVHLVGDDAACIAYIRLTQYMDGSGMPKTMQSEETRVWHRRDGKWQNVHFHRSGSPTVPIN

SMILES	IC50 [1]	IC50 [3]	also measured
C[C@@H](Cn1cnnn1)Oc1cc(-c2cnc(Nc3cn(C4CCN(Cc5ccccc5)CC4)nc3C(F)(F)F)nc2)ccc1Cl [Example 548, (S)-5-(3-((1-(1H-tetrazol-1-yl)propan-2-yl)oxy)-4-chlorophenyl)-N-(1-(1-benzylpiperidin-4-yl)-3-(trifluoromethyl)-1H-pyrazol-4-yl)pyrimidin-2-amine]	< 10 nM	–	–
C[C@@H](Cn1cnnn1)Oc1cc(-c2cnc(Nc3cn(C4CN(C(=O)OC(C)(C)C)C4)nc3C(F)(F)F)nc2)ccc1Cl [Example 696, tert-butyl (S)-3-(4-((5-(3-((1-(1H-tetrazol-1-yl)propan-2-yl)oxy)-4-chlorophenyl)pyrimidin-2-yl)amino)-3-(trifluoromethyl)-1H-pyrazol-1-yl)azetidine-1-carboxylate]	–	–	IC50 [2]: 10 to 100 nM
COc1cc2c(cc1Nc1ncc(-c3ccc(Cl)c(O[C@@H](C)Cn4cnnn4)c3)cn1)C(=O)N(C1CCC1)C2 [Example 441, (S)-6-((5-(3-((1-(1H-tetrazol-1-yl)propan-2-yl)oxy)-4-chlorophenyl)pyrimidin-2-yl)amino)-2-cyclobutyl-5-methoxyisoindolin-1-one]	10 to 100 nM	–	–
COc1cc(C2CCCNC2)ccc1Nc1ncc(-c2ccc(C#N)c(O[C@@H](C)Cn3cnnn3)c2)cn1 (stereo partly drawn) [Example 472, 2-(((S)-1-(1H-tetrazol-1-yl)propan-2-yl)oxy)-4-(2-((2-methoxy-4-(piperidin-3-yl)phenyl)amino)pyrimidin-5-yl)benzonitrile]	< 10 nM	–	–
C[C@@H](Cn1cnnn1)Oc1cc(-c2cnc(Nc3cn(CC4CCCO4)nc3C(F)(F)F)nc2)ccc1Cl (stereo partly drawn) [Example 710, 5-(3-(((S)-1-(1H-tetrazol-1-yl)propan-2-yl)oxy)-4-chlorophenyl)-N-(1-((tetrahydrofuran-2-yl)methyl)-3-(trifluoromethyl)-1H-pyrazol-4-yl)pyrimidin-2-amine]	–	–	IC50 [2]: 10 to 100 nM
C[C@@H](Cn1cnnn1)Oc1cc(-c2cnc(Nc3cn([C@H]4CC[C@H](N5CC(F)C5)CC4)nc3OC3COC3)nc2)ccc1Cl [Example 863, 5-(3-(((S)-1-(1H-tetrazol-1-yl)propan-2-yl)oxy)-4-chlorophenyl)-N-(1-(trans-4-(3-fluoroazetidin-1-yl)cyclohexyl)-3-(oxetan-3-yloxy)-1H-pyrazol-4-yl)pyrimidin-2-amine]	–	< 10 nM	–
CCOC(=O)C1(n2cc(Nc3ncc(-c4ccc(Cl)c(O[C@@H](C)Cn5cnnn5)c4)cn3)c(OCC(F)(F)F)n2)CCC1 [Example 915, ethyl (S)-1-(4-((5-(3-((1-(1H-tetrazol-1-yl)propan-2-yl)oxy)-4-chlorophenyl)pyrimidin-2-yl)amino)-3-(2,2,2-trifluoroethoxy)-1H-pyrazol-1-yl)cyclobutane-1-carboxylate]	–	–	IC50 (CaMKIIδ binding assay, activity class per Table 2): < 10 nM
C[C@@H](Cn1cnnn1)Oc1cc(-c2cnc(Nc3cn(CC(F)(F)F)nc3OCC(F)(F)F)nc2)ccc1Cl [Example 756, (S)-5-(3-((1-(1H-tetrazol-1-yl)propan-2-yl)oxy)-4-chlorophenyl)-N-(3-(2,2,2-trifluoroethoxy)-1-(2,2,2-trifluoroethyl)-1H-pyrazol-4-yl)pyrimidin-2-amine]	–	10 to 100 nM	–
C[C@@H](Cn1cnnn1)Oc1cc(-c2cnc(Nc3cn(C4CCN(Cc5cccnc5)CC4)nc3C(F)(F)F)nc2)ccc1Cl [Example 563, (S)-5-(3-((1-(1H-tetrazol-1-yl)propan-2-yl)oxy)-4-chlorophenyl)-N-(1-(1-(pyridin-3-ylmethyl)piperidin-4-yl)-3-(trifluoromethyl)-1H-pyrazol-4-yl)pyrimidin-2-amine]	10 to 100 nM	–	–
C[C@@H](Cn1cnnn1)Oc1cc(-c2cnc(Nc3cc(C4CCNCC4)c(F)cc3F)nc2)ccc1Cl [Example 575, (S)-5-(3-((1-(1H-tetrazol-1-yl)propan-2-yl)oxy)-4-chlorophenyl)-N-(2,4-difluoro-5-(piperidin-4-yl)phenyl)pyrimidin-2-amine]	< 10 nM	–	–
C[C@@H](Cn1cnnn1)Oc1cc(-c2cnc(Nc3cn([C@H]4CC[C@@H](N5CCOCC5)CC4)nc3OC3COC3)nc2)ccc1Cl [Example 820, 5-(3-(((S)-1-(1H-tetrazol-1-yl)propan-2-yl)oxy)-4-chlorophenyl)-N-(1-(cis-4-morpholinocyclohexyl)-3-(oxetan-3-yloxy)-1H-pyrazol-4-yl)pyrimidin-2-amine]	–	< 10 nM	–
C[C@@H](Cn1cnnn1)Oc1cc(-c2cnc(Nc3cn(CC(F)F)nc3OCC(F)(F)F)nc2)ccc1C#N [Example 767, (S)-2-((1-(1H-tetrazol-1-yl)propan-2-yl)oxy)-4-(2-((1-(2,2-difluoroethyl)-3-(2,2,2-trifluoroethoxy)-1H-pyrazol-4-yl)amino)pyrimidin-5-yl)benzonitrile]	–	< 10 nM	–
COc1cc2c(cc1Nc1ncc(-c3ccc(Cl)c(O[C@@H](C)Cn4cnnn4)c3)cn1)C(=O)N(C1CCOCC1)C2 [Example 438, (S)-6-((5-(3-((1-(1H-tetrazol-1-yl)propan-2-yl)oxy)-4-chlorophenyl)pyrimidin-2-yl)amino)-5-methoxy-2-(tetrahydro-2H-pyran-4-yl)isoindolin-1-one]	10 to 100 nM	–	–
C[C@@H](Cn1cnnn1)Oc1cc(-c2cnc(Nc3cn([C@@H](C)CO)nc3OCC(F)(F)F)nc2)ccc1Cl [Example 775, (S)-2-(4-((5-(3-(((S)-1-(1H-tetrazol-1-yl)propan-2-yl)oxy)-4-chlorophenyl)pyrimidin-2-yl)amino)-3-(2,2,2-trifluoroethoxy)-1H-pyrazol-1-yl)propan-1-ol]	–	< 10 nM	–
C[C@@H](Cn1cnnn1)Oc1cc(-c2cnc(Nc3cc(C4CCN(C5COC5)CC4)c(F)cc3F)nc2)ccc1Cl [Example 684, (S)-5-(3-((1-(1H-tetrazol-1-yl)propan-2-yl)oxy)-4-chlorophenyl)-N-(2,4-difluoro-5-(1-(oxetan-3-yl)piperidin-4-yl)phenyl)pyrimidin-2-amine]	–	–	IC50 [2]: 10 to 100 nM
C[C@@H](Cn1cnnn1)Oc1cc(-c2cnc(Nc3cn(C4CCC(C(=O)O)CC4)nc3C(F)(F)F)nc2)ccc1Cl (stereo partly drawn) [Example 604, (S)-4-(4-((5-(3-((1-(1H-tetrazol-1-yl)propan-2-yl)oxy)-4-chlorophenyl)pyrimidin-2-yl)amino)-3-(trifluoromethyl)-1H-pyrazol-1-yl)cyclohexane-1-carboxylic acid]	–	–	IC50 [2]: 10 to 100 nM
C[C@@H](Cn1cnnn1)Oc1cc(-c2cnc(Nc3cn(-c4cccc(=O)[nH]4)nc3OCC(F)(F)F)nc2)ccc1Cl [Example 879, (S)-6-(4-((5-(3-((1-(1H-tetrazol-1-yl)propan-2-yl)oxy)-4-chlorophenyl)pyrimidin-2-yl)amino)-3-(2,2,2-trifluoroethoxy)-1H-pyrazol-1-yl)pyridin-2(1H)-one]	–	10 to 100 nM	–
COc1nn(C2CCNCC2)cc1Nc1ncc(-c2ccc(Cl)c(O[C@@H](C)Cn3cnnn3)c2)cn1 [Example 657, (S)-5-(3-((1-(1H-tetrazol-1-yl)propan-2-yl)oxy)-4-chlorophenyl)-N-(3-methoxy-1-(piperidin-4-yl)-1H-pyrazol-4-yl)pyrimidin-2-amine]	–	–	IC50 [2]: < 10 nM
C[C@@H](Cn1cnnn1)Oc1cc(-c2cnc(Nc3cc4c(cc3Cl)CCN(C3COC3)CC4)nc2)ccc1C#N [Example 539, (S)-2-((1-(1H-tetrazol-1-yl)propan-2-yl)oxy)-4-(2-((8-chloro-3-(oxetan-3-yl)-2,3,4,5-tetrahydro-1H-benzo[d]azepin-7-yl)amino)pyrimidin-5-yl)benzonitrile]	< 10 nM	–	–
COc1cc2c(cc1Nc1ncc(-c3ccc(Cl)c(O[C@@H](C)Cn4cnnn4)c3)cn1)CCN(CCO)C2 [Example 480, (S)-2-(6-((5-(3-((1-(1H-tetrazol-1-yl)propan-2-yl)oxy)-4-chlorophenyl)pyrimidin-2-yl)amino)-7-methoxy-3,4-dihydroisoquinolin-2(1H)-yl)ethan-1-ol]	< 10 nM	–	–
CCn1cc(Nc2ncc(-c3ccc(Cl)c(O[C@@H](C)Cn4cnnn4)c3)cn2)c(C(=O)N2CCOCC2)n1 [Example 866, (S)-(4-((5-(3-((1-(1H-tetrazol-1-yl)propan-2-yl)oxy)-4-chlorophenyl)pyrimidin-2-yl)amino)-1-ethyl-1H-pyrazol-3-yl)(morpholino)methanone]	–	10 to 100 nM	–
C[C@@H](Cn1cnnn1)Oc1cc(-c2cnc(Nc3cn(C4CCN(Cc5cccn5C)CC4)nc3C(F)(F)F)nc2)ccc1Cl [Example 566, (S)-5-(3-((1-(1H-tetrazol-1-yl)propan-2-yl)oxy)-4-chlorophenyl)-N-(1-(1-((1-methyl-1H-pyrrol-2-yl)methyl)piperidin-4-yl)-3-(trifluoromethyl)-1H-pyrazol-4-yl)pyrimidin-2-amine]	< 10 nM	–	–
C[C@@H](Cn1cnnn1)Oc1cc(-c2cnc(Nc3cn(CC4(CO)COC4)nc3C(F)(F)F)nc2)ccc1Cl [Example 732, (S)-(3-((4-((5-(3-((1-(1H-tetrazol-1-yl)propan-2-yl)oxy)-4-chlorophenyl)pyrimidin-2-yl)amino)-3-(trifluoromethyl)-1H-pyrazol-1-yl)methyl)oxetan-3-yl)methanol]	–	10 to 100 nM	–
CC(C)c1nn(C2CCN(C3CCOCC3)CC2)cc1Nc1ncc(-c2ccc(Cl)c(O[C@@H](C)Cn3cnnn3)c2)cn1 [Example 623, (S)-5-(3-((1-(1H-tetrazol-1-yl)propan-2-yl)oxy)-4-chlorophenyl)-N-(3-isopropyl-1-(1-(tetrahydro-2H-pyran-4-yl)piperidin-4-yl)-1H-pyrazol-4-yl)pyrimidin-2-amine]	–	–	IC50 [2]: < 10 nM
C[C@@H](Cn1cnnn1)Oc1cc(-c2cnc(Nc3c[nH]nc3C(F)(F)F)nc2)ccc1Cl [Example 628, (S)-5-(3-((1-(1H-tetrazol-1-yl)propan-2-yl)oxy)-4-chlorophenyl)-N-(3-(trifluoromethyl)-1H-pyrazol-4-yl)pyrimidin-2-amine]	–	–	IC50 [2]: 10 to 100 nM

— patent US10543212B2, “Substituted amines for treating cardiac diseases” (Cardurion Pharmaceuticals, LLC, priority 2017, dated 2020)
